Test system: HLA-A2.1
Experiment: Pulse-chase of HLA-A2.1 maturation and turnover in transfected HeLa cells
Format: cell-based, human
Conditions: for effect of inhibitor on degradation of HLA-A2.1 heavy chains: MARCH-IV and HLA-A2.1 co-transfected cells, concanamycin A 50 nM, lactacystin 20 μM
Protocol: Metabolic labeling, immunoprecipitation and Western blotting. HeLa cells were grown to 80% confluency in 100 mm tissue culture dishes and transfected as above. Cells were incubated in serum-free and methionine-free medium for 30 minutes, and metabolically labeled with ^35S-cysteine/^35S-methionine (250 μCi, Amersham) for the indicated time. After labeling, cells were washed twice with PBS and either lysed immediately in PBS containing 1% Triton X-100 and protease inhibitors (Roche, Indianapolis, Ind.), or the label was chased with excess (2 mM) unlabeled cysteine and methionine in the presence or absence of specific inhibitors for the indicated time. The cell lysates were precleared with protein A/G agarose beads and incubated with 3 μg of antibody for one hour and followed by two hours incubation with protein A/G beads. Immunoprecipated proteins were washed five times with 0.1% Triton X-100 in PBS. All samples were boiled in SDS buffer and analyzed by SDS-PAGE gel electrophoresis. Where indicated, samples were treated with Endoglycosidase H (Roche) according to manufacturer's instructions. Briefly, samples were initially denatured at 100° C. in 40 μl of 0.3% SDS, 150 mM 2-mercaptoethanol, 50 mM sodium acetate, pH 5.5 and incubated with 4 milli-Units of Endo H overnight at 37° C. All samples were boiled in SDS buffer and analyzed by SDS-PAGE gel electrophoresis. Gels were fixed, dried and exposed to Kodak BioMax MR film. Western blotting was accomplished using the WesternBreeze Chemiluminescent Detection System (Invitrogen) following Semi-dry transfer to PVDF membranes (Millipore, Bedford, Mass.).
To determine the ultimate fate of the MHC I molecules in the presence of MARCH-IV, the maturation and turnover of co-transfected HLA-A2.1 in pulse-chase experiments (FIG. 12B) was followed. In the absence of MARCH-IV, HLA-A2.1 molecules acquired Endo H resistance after 1 hour of chase indicating exit from the ER. […]

Structure (SMILES)	effect of inhibitor on degradation of HLA-A2.1 heavy chains	effect of inhibitor on HLA-A2.1 in the absence of MARCH-IV (cells without MARCH-IV)
CC(=O)N[C@@H](CSC(=O)[C@]1([C@@H](O)C(C)C)NC(=O)[C@H](C)[C@@H]1O)C(=O)O [lactacystin]	did not increase recovery of HLA-A2.1 heavy chains	
C/C=C/[C@H]1O[C@@](O)([C@@H](C)[C@H](O)[C@H](C)[C@H]2OC(=O)/C(OC)=C/C(C)=C/[C@@H](C)[C@@H](O)[C@@H](CC)[C@@H](O)[C@H](C)C/C(C)=C/C=C/[C@@H]2OC)C[C@@H](O[C@H]2C[C@@H](O)[C@H](OC(N)=O)[C@@H](C)O2)[C@@H]1C [concanamycin A]	delayed the degradation of HLA-A2.1	no effect
